Results on two compounds are retold here after US20260069694A1, “IDENTIFICATION OF HIGHLY IMMUNOSUPRESIVE TREG POPULATION IN TUMOR MICROENVIRONMENTS” (THE TRUSTEES OF COLUMBIA UNIVERSITY IN THE CITY OF NEW YORK, priority 2023, published 2026).

In experiment [1] the test system is naïve CD4+ T cells / CD4+CD25+Foxp3+ iTregs. The experiment in a line: iTreg induction from naive CD4+ T cells in the absence or presence of iRGD or iRGE. The format is cell-based, mouse. The procedure:
(§1) Naïve CD4^+ T cells and nTregs were isolated from the spleen of healthy C57B6129SF1/J mice by magnetic separation using a mouse CD4+ T cell isolation kit and PE-conjugated anti-mouse CD25 with anti-PE magnetic separation micro beads (Miltenyi Biotec™). The isolated T cells were stimulated with anti-CD3/CD28 beads (×25 dilution; Miltenyi Biotec™) in the presence or absence of recombinant mouse TGF-β1 (5 ng/ml; Bio-Techne™ Corporation) for 3 days. iRGD (100 μM) or iRGE (100 μM) peptide was added to the cultures in some experiments. To study the effect of TGF-β1 on the induction of αvβ5 integrin+ iTregs, naïve CD4+ T cells were cultured with anti-CD3/CD28 beads (x 25 dilution) and TGF-β1 (5 ng/ml) in the presence or absence of varying concentrations of a TGF-βR1 inhibitor (LY2157299; Selleck™ Chemicals LLC). To study the effect of TCR stimulation on the induction of αvβ5 integrin+ iTregs, naïve CD4+ T cells treated with varying concentrations of plate-coated anti-mouse CD3 Ab (eBioscience™) in the presence of soluble anti-mouse CD28 Ab (2 μg/ml) (eBioscience™) and TGF-β1 (5 ng/ml). The cells were subjected to flow cytometry as described elsewhere.
For the data presented in FIG. 31, FIG. 32A, and FIG. 32B, naïve CD4+ T cells were stimulated with anti-CD3/CD28 Abs and TGF-β1 in the absence or presence of iRGD or iRGE. Flow cytometry was performed to quantify the proportion of CD4+CD25+Foxp3+ iTregs (see FIG. 31) and αvβ5 integrin+ cells among the iTregs (See FIG. 32A). Apoptosis of αvβ5 integrin+ iTregs was quantitated by measuring cleaved caspase 3 using flow cytometry (see FIG. 32B; n=3).
To investigate whether iRGD Reduces CD4+CD25+Foxp3+ iTregs in an RGD-Dependent Manner in Vitro, naïve CD4+ T cells were stimulated with anti-CD3/CD28 Abs and TGF-β1 in the absence or presence of the iRGD or iRGE peptide. The resulting cells were subjected to flow cytometry to analyze the expression of CD25 and Foxp3 in the CD4+ T cells (FIG. 33A) and the expression of the αvβ5 integrin and NRP-1 on CD4+CD25+Foxp3+ iTregs (FIG. 33B). The bar diagram in (FIG. 33C) summarizes the proportion of NRP-1+ cells among the iTregs. The statistical analysis used was the one-way ANOVA; p=0.8221. n=3 per group.
The proportion of apoptotic αvβ5 integrin+ iTregs (FIG. 34) and CD4+Foxp3neg T cells (FIG. 35) was quantitated by measuring cleaved caspase 3 using flow cytometry. The statistical analysis used was Welch's t test; p=0.0705 (n=3). The dot plots and histograms of FIG. 33C and FIG. 35 show representative data from the 3 independent experiments. The error bars indicate the mean±standard error; N.S., not significant.

The subject of experiment [2] is naïve CD4+ T cells. Kind of experiment: iTreg induction from naive CD4+ T cells with TGF-βR1 inhibitor. The format is cell-based, mouse. The procedure: as §1
Naive CD4+ T cells isolated from healthy mice were expanded in the presence of anti-CD3/CD28 Abs, exogenous TGF-β1, and increasing doses of a TGF-βR1 inhibitor (LY2157299). […] The bar diagram of FIG. 25B summarizes the results from 3 independent experiments. The statistical analysis used was one-way ANOVA; p<0.0001 (0 vs 1), p<0.0001 (1 vs 3), p=0.0154 (3 vs 10).
The bar diagram of FIG. 26B summarizes the results from 3 independent experiments. The statistical analysis used was one-way ANOVA; p=0.3996 (αvβ5, 0 vs 1), p=0.5868 (αvβ5, 0 vs 3), p=0.2265 (NRP-1, 0 vs 1), p=0.5751 (NRP-1, 0 vs 3). The error bars indicate the mean±standard error; *p<0.05; ****p<0.0001; N.S., not significant.

[3] abbreviates: peptide 100 μM, anti-CD3/CD28 Abs and TGF-β1.

Turning to “CRGEKGPDC [iRGE, an iRGD variant that lacks the RGD motif, reference compound]”, the “apoptosis of CD4+Foxp3neg T cells (cleaved caspase 3)” value in experiment [1] (flow cytometry) is on record as “Neither iRGD nor iRGE increased the apoptosis”. Also, in experiment [1] (setting [3]), the “proportion of CD4+CD25+Foxp3+ iTregs” value is “ineffective” and the “αvβ5 integrin-positive population among the iTregs” value was “ineffective”.
For `Cc1cccc(-c2nn3c(c2-c2ccnc4ccc(C(N)=O)cc24)CCC3)n1` [LY2157299], in experiment [2] (among iTregs), the “proportion of the NRP-1-positive iTregs” value is given as “did not affect” and the “proportion of the αvβ5-positive iTregs” value is “did not affect”. For the same compound, in experiment [2] (anti-CD3/CD28 Abs, exogenous TGF-β1, increasing doses of inhibitor), the “development of iTregs (CD4+Foxp3+ T cells) from naïve CD4+ T cells” value is “suppressed the development of iTregs from naïve CD4+ T cells in a dose-dependent manner”.
